According to patent EP0184291B1, “Polyether antibiotic A80190” (ELI LILLY AND COMPANY, priority 1984, dated 1986):
Converted amounts (≈) assume the structure as drawn. “And” between values parts separate entries of the source, which are not always exact repeats. Equal values may be shown once. Marks after values point to notes of the source that are not given here.

Assays:
Treponema hyodysenteriae = assay: Growth inhibition, swine dysentery agent; assay type: cell-based; details: Brachyspira hyodysenteriae; read-out: inhibits the growth at levels as low as
Description: In another aspect the A80190 compounds are useful in the treatment of swine dysentery. A80190 inhibits the growth of Treponema hyodysenteriae, a causative agent of swine dysentery, at levels as low as 0.39 mcg/ml. A preferred method of administration to swine is by incorporation of an appropriate amount of an A80190 compound into the feed ration or drinking water. An appropriate amount will relate to whether the treatment is to prevent or to cure infection. Usually, a lower concentration of active compound is needed to prevent infection than is required for to eliminate infection in animals already afflicted. In general, amounts in the range of from about 20 to about 100 grams of A80190 compound per ton of feed are effective to prevent infection. Amounts in the range of from about 100 to about 500 g of A80190 compound per ton of feed are recommended for treating swine suffering from dysentery. These amounts provide from about 1 to about 5 mg/kg of body weight per day (prophylactic treatment) or from about 5 to about 25 mg/kg of body weight per day (treatment of infected animal). When added to the drinking water, amounts of from about 0.04 to about 0.2 g (prophylactic) or from about 0.2 to about 1 g (therapeutic) of A80190 compound per gallon of water are recommended.

[1] = test system: Eimeria acervulina (Lilly strain 59), Eimeria maxima (strain FS-177) and Eimeria tenella (strain FS-155); assay: Coccidiosis test in broiler chicks, A80190 with nicarbazin (Test 1); assay type: in vivo; details: Nicarbazin 0 p.p.m. in ration
two-spotted spider mite = assay: Acaricidal activity; assay type: in vivo; details: Tetranychus urticae; read-out: active when applied at a rate as low as
Description: The A80190 compounds are also useful as insecticides and acaricides. For example, A80190 is active against the following insects as levels as low as the level indicated in parenthesis: mosquito larvae (<50 ppm), blowfly larvae (35 ppm), adult housefly (35 ppm), and Mexican bean beetle and southern armyworm (<100 ppm). A80190 is also active against mites such as two-spotted spider mite when applied at a rate as low as 25 ppm.

pigweed = assay: Herbicidal activity; assay type: in vivo; details: 2 lb/acre (200 gpa), either pre-emergence or post-emergence
Description: (§1) In another aspect, the A80190 compounds have herbicidal activity. For example, A80190 is active against crabgrass, mustard and pigweed at 2 lb/acre (200 gpa) either pre-emergence or post-emergence.

mustard = assay: Herbicidal activity; assay type: in vivo; details: 2 lb/acre (200 gpa), either pre-emergence or post-emergence
Description: as §1

crabgrass = assay: Herbicidal activity; assay type: in vivo; details: 2 lb/acre (200 gpa), either pre-emergence or post-emergence
Description: as §1

[2] = test system: volatile-fatty-acid (VFA) concentrations; assay: Ruminant feed-utilization efficiency test (VFA in flasks, method of U.S. Patent 3,794,732); set-up: species or system ruminants; details: ratio treated flasks to control flasks
Description: The efficiency of feed use can be monitored by observing the production and concentration of propionate compounds in the rumen using the method described by Arthur P. Raun in U.S. Patent 3,794,732 (see especially Example 5).

CC[C@@H](O)[C@]1(C)C[C@H](C)[C@@](O)([C@H]2C[C@H](C)[C@H]([C@]3(C)C[C@@H](O[C@H]4CC[C@H](OC)[C@@H](C)O4)[C@H]([C@@H]4CC[C@@]5(O[C@H]([C@@H](C)[C@@H](OC)[C@H](C)C(=O)O)[C@H](C)[C@@H](OC)[C@H]5C)O4)O3)O2)O1 [Example A80190]
MIC (Treponema hyodysenteriae): 0.39 µg/mL (≈ 0.47 µM) | CECAL LESION SCORES ([1]; A80190 4 p.p.m.): 2.63 | INTESTINAL LESION SCORES ([1]; A80190 4 p.p.m.): 8.63 | WEIGHT GAIN ([1]; A80190 4 p.p.m.): 236 grams/per chicken | CECAL LESION SCORES ([1]; A80190 8 p.p.m.): 1.75 | INTESTINAL LESION SCORES ([1]; A80190 8 p.p.m.): 5.94 | WEIGHT GAIN ([1]; A80190 8 p.p.m.): 265 grams/per chicken | CECAL LESION SCORES ([1]; A80190 12 p.p.m.): 1.19 | INTESTINAL LESION SCORES ([1]; A80190 12 p.p.m.): 3.50 | WEIGHT GAIN ([1]; A80190 12 p.p.m.): 251 grams/per chicken | CECAL LESION SCORES ([1]; A80190 16 p.p.m.): 0.19 | INTESTINAL LESION SCORES ([1]; A80190 16 p.p.m.): 1.19 | WEIGHT GAIN ([1]; A80190 16 p.p.m.): 272 grams/per chicken | CECAL LESION SCORES ([1]; A80190 20 p.p.m.): 0.0 | INTESTINAL LESION SCORES ([1]; A80190 20 p.p.m.): 0.0 | WEIGHT GAIN ([1]; A80190 20 p.p.m.): 261 grams/per chicken | minimal effective concentration (two-spotted spider mite): 25 µg/mL | herbicidal activity (pigweed): active | herbicidal activity (mustard): active | herbicidal activity (crabgrass): active | Molar % Acetate ([2]; Dosage 0.3 mcg/ml): 0.970 | Molar % Butyrate ([2]; Dosage 0.3 mcg/ml): 0.819 | Molar % Propionate ([2]; Dosage 0.3 mcg/ml): 1.220* | Total VFA/ Control VFA mM/L ([2]; Dosage 0.3 mcg/ml): 0.967 | Molar % Acetate ([2]; Dosage 1 mcg/ml): 0.926 and 0.986 and 0.892 and 1.016 | Molar % Butyrate ([2]; Dosage 1 mcg/ml): 0.529 and 0.851 and 0.813 and 0.706 | Molar % Propionate ([2]; Dosage 1 mcg/ml): 1.566* and 1.185* and 1.403* and 1.247* | Total VFA/ Control VFA mM/L ([2]; Dosage 1 mcg/ml): 0.913 and 0.916 and 0.887 and 0.857 | Molar % Acetate ([2]; Dosage 3 mcg/ml): 0.998 | Molar % Butyrate ([2]; Dosage 3 mcg/ml): 0.611 | Molar % Propionate ([2]; Dosage 3 mcg/ml): 1.368* | Total VFA/ Control VFA mM/L ([2]; Dosage 3 mcg/ml): 0.963
